Measurements as given in ChEMBL document CHEMBL5291721, “A preclinical secondary pharmacology resource illuminates target-adverse drug reaction associations of marketed drugs” (Nat Commun, 2023).

Assays:
[1] = target: T1, Muscarinic acetylcholine receptor M1 (Homo sapiens, UniProt P11229); type: functional
T1 sequence (P11229 whole entry): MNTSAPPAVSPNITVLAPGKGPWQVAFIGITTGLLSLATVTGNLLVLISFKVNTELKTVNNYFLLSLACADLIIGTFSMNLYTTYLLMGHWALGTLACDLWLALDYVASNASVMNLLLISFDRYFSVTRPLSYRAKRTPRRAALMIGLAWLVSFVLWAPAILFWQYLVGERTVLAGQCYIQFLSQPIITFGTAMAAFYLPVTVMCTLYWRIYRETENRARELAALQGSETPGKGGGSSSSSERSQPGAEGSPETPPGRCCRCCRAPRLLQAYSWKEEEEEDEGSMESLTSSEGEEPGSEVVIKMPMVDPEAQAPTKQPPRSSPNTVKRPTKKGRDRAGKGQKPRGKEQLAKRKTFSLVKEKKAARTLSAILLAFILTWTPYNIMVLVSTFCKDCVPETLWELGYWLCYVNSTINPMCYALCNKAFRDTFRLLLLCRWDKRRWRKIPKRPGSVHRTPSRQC

[2] = target: T1, Muscarinic acetylcholine receptor M1; type: functional, cell-based
[3] = target: T2, Alpha-2A adrenergic receptor (Homo sapiens, UniProt P08913); type: functional, cell-based
T2 sequence (P08913 whole entry): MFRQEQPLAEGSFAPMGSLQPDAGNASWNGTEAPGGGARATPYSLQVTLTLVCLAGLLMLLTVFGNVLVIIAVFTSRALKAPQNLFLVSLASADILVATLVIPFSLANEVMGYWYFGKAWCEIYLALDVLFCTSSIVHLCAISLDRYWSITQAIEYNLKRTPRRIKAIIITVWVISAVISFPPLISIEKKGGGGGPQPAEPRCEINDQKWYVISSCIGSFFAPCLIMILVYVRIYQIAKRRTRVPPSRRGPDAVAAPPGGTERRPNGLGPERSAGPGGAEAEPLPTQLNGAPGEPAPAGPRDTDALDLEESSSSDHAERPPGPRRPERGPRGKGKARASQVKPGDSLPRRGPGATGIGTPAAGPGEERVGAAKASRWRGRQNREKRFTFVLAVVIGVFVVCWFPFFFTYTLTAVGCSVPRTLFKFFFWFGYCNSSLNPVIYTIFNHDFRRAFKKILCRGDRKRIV

[4] = target: Gamma-aminobutyric acid receptor subunit alpha-1/alpha-2/beta-2/gamma-2 (Homo sapiens, UniProt P14867+P18507+P47869+P47870); type: protein-complex assay
Glucocorticoid receptor = target: T3, Glucocorticoid receptor (Homo sapiens, UniProt P04150)
T3 sequence (P04150 whole entry): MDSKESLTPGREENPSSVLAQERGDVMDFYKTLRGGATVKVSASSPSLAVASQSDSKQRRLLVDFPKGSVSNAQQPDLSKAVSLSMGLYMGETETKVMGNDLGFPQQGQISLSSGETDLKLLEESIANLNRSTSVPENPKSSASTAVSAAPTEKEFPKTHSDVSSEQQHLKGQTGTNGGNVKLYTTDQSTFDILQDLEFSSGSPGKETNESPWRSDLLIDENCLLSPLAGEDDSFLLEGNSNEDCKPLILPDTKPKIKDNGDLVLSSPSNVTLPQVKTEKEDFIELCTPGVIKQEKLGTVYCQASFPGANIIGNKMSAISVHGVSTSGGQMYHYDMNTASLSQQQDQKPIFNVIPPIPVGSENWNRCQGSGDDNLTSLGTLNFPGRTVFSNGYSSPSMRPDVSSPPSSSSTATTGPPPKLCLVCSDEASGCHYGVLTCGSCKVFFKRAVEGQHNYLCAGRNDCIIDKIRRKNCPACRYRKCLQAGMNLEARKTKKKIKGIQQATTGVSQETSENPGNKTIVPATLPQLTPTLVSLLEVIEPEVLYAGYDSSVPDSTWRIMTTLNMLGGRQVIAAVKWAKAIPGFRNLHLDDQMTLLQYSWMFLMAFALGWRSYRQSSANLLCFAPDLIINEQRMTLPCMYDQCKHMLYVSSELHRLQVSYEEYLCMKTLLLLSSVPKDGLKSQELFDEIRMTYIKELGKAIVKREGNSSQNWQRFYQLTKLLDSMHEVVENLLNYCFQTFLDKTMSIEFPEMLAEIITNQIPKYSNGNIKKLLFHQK

B2 bradykinin receptor = target: T4, B2 bradykinin receptor (Homo sapiens, UniProt P30411)
T4 sequence (P30411 whole entry): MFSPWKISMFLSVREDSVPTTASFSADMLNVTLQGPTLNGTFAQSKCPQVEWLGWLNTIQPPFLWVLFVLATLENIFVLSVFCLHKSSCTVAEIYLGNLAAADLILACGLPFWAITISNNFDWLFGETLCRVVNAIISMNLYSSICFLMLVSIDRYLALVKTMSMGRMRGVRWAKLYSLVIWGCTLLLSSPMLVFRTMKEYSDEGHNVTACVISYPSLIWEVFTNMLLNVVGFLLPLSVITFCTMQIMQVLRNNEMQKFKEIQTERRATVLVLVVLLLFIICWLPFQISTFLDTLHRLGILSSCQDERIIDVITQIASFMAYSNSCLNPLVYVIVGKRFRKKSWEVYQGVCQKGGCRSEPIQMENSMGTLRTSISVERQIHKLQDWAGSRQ

[5] = target: T5, 5-hydroxytryptamine receptor 2C (Homo sapiens, UniProt P28335)
T5 sequence (P28335 whole entry): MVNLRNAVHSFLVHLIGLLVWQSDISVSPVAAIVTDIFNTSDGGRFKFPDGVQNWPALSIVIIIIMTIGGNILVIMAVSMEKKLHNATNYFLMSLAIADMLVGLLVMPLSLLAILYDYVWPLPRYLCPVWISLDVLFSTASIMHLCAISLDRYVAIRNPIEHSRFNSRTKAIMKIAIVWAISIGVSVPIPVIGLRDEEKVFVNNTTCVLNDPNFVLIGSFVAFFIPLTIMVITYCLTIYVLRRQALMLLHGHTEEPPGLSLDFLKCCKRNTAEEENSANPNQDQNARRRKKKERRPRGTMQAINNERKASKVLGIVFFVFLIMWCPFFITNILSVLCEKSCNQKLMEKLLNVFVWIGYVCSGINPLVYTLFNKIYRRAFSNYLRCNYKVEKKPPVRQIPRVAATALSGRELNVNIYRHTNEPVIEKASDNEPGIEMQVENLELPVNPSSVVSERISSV
Note: assay procedure not described here.

Gamma-aminobutyric acid receptor subunit alpha-1/alpha-2/beta-2/gamma-2, sequence (P14867 whole entry): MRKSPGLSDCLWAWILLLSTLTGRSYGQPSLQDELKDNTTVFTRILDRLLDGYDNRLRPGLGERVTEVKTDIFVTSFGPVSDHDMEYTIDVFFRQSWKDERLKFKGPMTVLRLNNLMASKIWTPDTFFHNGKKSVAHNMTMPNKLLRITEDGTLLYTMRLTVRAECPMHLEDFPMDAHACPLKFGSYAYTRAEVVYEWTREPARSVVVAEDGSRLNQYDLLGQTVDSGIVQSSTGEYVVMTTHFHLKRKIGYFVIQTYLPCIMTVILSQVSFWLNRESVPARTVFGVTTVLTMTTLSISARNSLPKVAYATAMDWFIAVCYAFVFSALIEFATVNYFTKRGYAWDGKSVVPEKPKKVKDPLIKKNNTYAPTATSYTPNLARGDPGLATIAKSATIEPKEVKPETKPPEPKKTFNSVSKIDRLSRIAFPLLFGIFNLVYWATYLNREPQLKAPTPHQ
Gamma-aminobutyric acid receptor subunit alpha-1/alpha-2/beta-2/gamma-2, sequence (P47870 whole entry): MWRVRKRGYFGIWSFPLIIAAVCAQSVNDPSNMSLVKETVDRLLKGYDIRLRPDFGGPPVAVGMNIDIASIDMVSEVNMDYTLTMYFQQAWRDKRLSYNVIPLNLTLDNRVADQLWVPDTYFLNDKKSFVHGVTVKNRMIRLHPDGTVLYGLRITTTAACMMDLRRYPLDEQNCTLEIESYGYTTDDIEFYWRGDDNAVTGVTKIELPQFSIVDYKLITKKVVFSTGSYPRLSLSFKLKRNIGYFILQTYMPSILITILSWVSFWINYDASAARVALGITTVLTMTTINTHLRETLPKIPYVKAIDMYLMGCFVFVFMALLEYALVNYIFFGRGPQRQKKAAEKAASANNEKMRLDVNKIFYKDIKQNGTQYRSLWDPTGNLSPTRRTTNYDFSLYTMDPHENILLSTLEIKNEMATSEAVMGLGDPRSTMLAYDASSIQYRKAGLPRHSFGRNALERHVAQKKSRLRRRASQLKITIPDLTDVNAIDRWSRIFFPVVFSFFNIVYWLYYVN
Gamma-aminobutyric acid receptor subunit alpha-1/alpha-2/beta-2/gamma-2, sequence (P18507 whole entry): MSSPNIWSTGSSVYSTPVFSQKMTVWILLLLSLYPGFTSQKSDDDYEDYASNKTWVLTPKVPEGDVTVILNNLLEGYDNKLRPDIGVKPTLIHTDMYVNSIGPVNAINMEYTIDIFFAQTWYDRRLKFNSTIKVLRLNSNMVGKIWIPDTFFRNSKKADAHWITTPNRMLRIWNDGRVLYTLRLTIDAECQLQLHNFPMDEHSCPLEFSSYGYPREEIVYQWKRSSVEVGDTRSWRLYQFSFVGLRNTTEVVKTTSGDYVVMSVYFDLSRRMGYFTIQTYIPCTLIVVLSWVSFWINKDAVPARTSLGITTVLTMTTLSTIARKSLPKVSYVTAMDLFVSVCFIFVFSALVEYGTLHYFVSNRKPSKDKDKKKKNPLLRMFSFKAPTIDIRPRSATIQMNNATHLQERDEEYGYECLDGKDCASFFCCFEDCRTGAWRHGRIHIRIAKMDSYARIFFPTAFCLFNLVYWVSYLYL
Gamma-aminobutyric acid receptor subunit alpha-1/alpha-2/beta-2/gamma-2, sequence (P47869 whole entry): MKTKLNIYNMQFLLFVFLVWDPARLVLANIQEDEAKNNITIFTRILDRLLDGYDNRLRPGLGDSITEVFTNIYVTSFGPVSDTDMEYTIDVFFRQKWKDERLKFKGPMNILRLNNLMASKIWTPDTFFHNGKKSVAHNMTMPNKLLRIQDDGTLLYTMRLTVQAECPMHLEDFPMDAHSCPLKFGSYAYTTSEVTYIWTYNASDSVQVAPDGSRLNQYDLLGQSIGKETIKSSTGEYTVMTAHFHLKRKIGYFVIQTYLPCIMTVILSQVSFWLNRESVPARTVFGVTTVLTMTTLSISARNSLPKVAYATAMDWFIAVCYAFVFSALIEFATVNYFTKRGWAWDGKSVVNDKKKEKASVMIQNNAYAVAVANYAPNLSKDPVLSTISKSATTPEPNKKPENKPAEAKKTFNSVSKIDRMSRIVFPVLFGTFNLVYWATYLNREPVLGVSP

For `CC(=O)/N=c1/sc(S(N)(=O)=O)nn1C` [METHAZOLAMIDE], the AC50 [1] was greater than 10 µM, the AC50 [2] was greater than 30 µM and the AC50 [3] was greater than 10 µM. For the same compound, the AC50 [4] was greater than 30 µM, the AC50 (Glucocorticoid receptor) was greater than 10 µM and the AC50 (B2 bradykinin receptor) was greater than 10 µM. The AC50 [5] was greater than 30000 nM.
Work on `CC(=O)Oc1ccccc1C(=O)Nc1ncc([N+](=O)[O-])s1` [NITAZOXANIDE] yielded an AC50 [1] greater than 30 µM, an AC50 [2] of 4.33 µM and an AC50 [3] of 19 µM. The AC50 [4] was greater than 30 µM, the AC50 (Glucocorticoid receptor) was greater than 30 µM and the AC50 (B2 bradykinin receptor) was 4.9 µM. It also gave an AC50 [5] of 450 nM.
With `CN(C)C(=O)c1nc(CNC(=O)CN)n(-c2ccc(Cl)cc2C(=O)c2ccccc2Cl)n1` [RILMAZAFONE] the AC50 [2] was greater than 30 µM and the AC50 [4] was greater than 30 µM.
`NC(=O)NS(=O)(=O)c1ccc(N)cc1` [SULFACARBAMIDE] gave an AC50 [2] greater than 30 µM and an AC50 [4] greater than 30 µM.
For `CCCCCCCCCCCCCCCC(=O)OC/C=C(C)/C=C/C=C(C)/C=C/C1=C(C)CCCC1(C)C` [VITAMIN A PALMITATE], the AC50 [2] was greater than 30 µM and the AC50 [4] was greater than 30 µM.
